Reference: ChEMBL document CHEMBL1909046, “DrugMatrix in vitro pharmacology data”

How the values were obtained:
[1] = DRUGMATRIX: Sodium/nucleoside co-transporter radioligand binding (ligand: nitrobenzylthioinosine); format: cell membranes, Cavia porcellus, Dunkin-Hartley, Cerebral cortex, Membrane; conditions: Not Active = under 50% inhibition at 10 µM
[2] = target: T1, Alpha-2A adrenergic receptor (Homo sapiens, UniProt P08913); format: cell membranes, Sf9, Membrane; also: in other assays of this panel Not Active means under 50% inhibition at 10 µM
T1 sequence (P08913 whole entry): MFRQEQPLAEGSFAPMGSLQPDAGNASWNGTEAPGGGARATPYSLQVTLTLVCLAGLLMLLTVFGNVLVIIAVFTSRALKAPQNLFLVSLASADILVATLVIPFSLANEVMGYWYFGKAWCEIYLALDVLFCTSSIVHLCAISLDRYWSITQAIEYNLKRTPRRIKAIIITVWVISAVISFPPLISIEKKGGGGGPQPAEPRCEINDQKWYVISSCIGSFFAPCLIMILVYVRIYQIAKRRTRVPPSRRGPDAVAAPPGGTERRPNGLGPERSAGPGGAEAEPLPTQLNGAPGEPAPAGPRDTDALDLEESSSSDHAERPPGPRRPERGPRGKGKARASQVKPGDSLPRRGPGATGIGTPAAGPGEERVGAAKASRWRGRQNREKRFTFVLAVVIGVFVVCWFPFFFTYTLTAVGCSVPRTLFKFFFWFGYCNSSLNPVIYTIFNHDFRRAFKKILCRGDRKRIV

[3] = target: T2, Polyunsaturated fatty acid lipoxygenase ALOX15 (Oryctolagus cuniculus, UniProt P12530); assay: biochemical; format: tissue-based, Reticulocytes;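 also: inhibition of 15-lipoxygenase enzyme activity measured with linoleic acid as the substrate; in other assays of this panel Not Active means under 50% inhibition at 10 µM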
T2 sequence (P12530 whole entry): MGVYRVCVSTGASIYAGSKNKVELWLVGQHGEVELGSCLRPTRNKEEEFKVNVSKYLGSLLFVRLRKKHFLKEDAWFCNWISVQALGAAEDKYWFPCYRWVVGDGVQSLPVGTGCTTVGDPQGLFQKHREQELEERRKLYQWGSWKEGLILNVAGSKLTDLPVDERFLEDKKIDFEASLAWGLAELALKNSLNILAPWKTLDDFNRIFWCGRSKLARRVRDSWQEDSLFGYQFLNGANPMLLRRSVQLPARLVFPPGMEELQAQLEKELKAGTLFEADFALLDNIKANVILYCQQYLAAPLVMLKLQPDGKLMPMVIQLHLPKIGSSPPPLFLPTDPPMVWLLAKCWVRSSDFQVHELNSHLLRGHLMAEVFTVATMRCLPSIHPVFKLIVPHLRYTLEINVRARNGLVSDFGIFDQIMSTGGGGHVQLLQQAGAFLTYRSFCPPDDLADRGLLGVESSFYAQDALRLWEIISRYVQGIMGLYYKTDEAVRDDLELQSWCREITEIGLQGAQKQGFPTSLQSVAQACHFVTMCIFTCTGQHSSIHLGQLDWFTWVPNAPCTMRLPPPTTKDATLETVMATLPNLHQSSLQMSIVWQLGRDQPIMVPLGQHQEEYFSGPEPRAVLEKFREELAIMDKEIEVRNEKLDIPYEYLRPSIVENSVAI

[4] = target: Delta-type opioid receptor (Homo sapiens, UniProt P41143); format: cell membranes, HEK293, Membrane; conditions: hek293; also: in other assays of this panel Not Active means under 50% inhibition at 10 µM
[5] = target: Protein kinase C alpha type (Homo sapiens, UniProt P17252); format: cell-based; conditions: sf9;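 also: inhibition of PKCalpha kinase activity measured in an enzyme assay with histone as the phosphorylation substrate; in other assays of this panel Not Active means under 50% inhibition at 10 µM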
[6] = target: 5-hydroxytryptamine receptor 1B (Rattus norvegicus, UniProt P28564); format: cell membranes, Wistar, Cerebral cortex, Membrane; also: in other assays of this panel Not Active means under 50% inhibition at 10 µM
Sequence of 5-hydroxytryptamine receptor 1B (P28564 whole entry): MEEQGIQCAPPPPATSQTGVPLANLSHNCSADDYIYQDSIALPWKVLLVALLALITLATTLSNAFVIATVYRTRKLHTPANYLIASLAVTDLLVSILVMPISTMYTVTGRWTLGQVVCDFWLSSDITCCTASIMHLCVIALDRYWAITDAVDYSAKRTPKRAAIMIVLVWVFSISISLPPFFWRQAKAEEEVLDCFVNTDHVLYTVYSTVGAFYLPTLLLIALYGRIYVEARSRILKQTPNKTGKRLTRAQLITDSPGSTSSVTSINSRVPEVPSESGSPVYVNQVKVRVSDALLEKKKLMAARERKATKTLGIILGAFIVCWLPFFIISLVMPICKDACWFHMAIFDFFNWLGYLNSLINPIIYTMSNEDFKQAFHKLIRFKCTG

Sequence of Delta-type opioid receptor (P41143 whole entry): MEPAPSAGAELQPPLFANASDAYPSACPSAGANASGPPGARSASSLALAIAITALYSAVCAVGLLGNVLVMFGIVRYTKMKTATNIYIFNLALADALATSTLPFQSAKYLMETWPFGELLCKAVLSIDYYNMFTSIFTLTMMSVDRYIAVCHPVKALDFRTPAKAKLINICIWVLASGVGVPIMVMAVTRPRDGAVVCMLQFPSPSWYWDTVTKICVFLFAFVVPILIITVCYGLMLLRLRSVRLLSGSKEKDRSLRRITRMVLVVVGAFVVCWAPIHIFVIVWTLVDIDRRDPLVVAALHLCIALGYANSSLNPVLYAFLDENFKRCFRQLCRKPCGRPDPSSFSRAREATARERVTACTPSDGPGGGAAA

SMILES	IC50 [1]	Ki [1]	IC50 ([2]; sf9)	IC50 ([3]; reticulocytes)	IC50 [4]	IC50 [5]	IC50 [6]	IC50 ([3]; read-out: IC50)	IC50 ([6]; read-out: IC50)	Ki ([6]; read-out: Ki)	IC50 ([2]; read-out: IC50)	Ki ([2]; read-out: Ki)
C/C=C/C[C@@H](C)[C@@H](O)[C@H]1C(=O)N[C@@H](CC)C(=O)N(C)CC(=O)N(C)[C@@H](CC(C)C)C(=O)N[C@@H](C(C)C)C(=O)N(C)[C@@H](CC(C)C)C(=O)N[C@@H](C)C(=O)N[C@H](C)C(=O)N(C)[C@@H](CC(C)C)C(=O)N(C)[C@@H](CC(C)C)C(=O)N(C)[C@@H](C(C)C)C(=O)N1C [CYCLOSPORINE]	Not Active	Not Active	Not Active	Not Active	Not Active	Not Active	Not Active					
CN(C)/N=N/c1[nH]cnc1C(N)=O [DACARBAZINE]	Not Active	Not Active	Not Active	Not Active	Not Active	Not Active	Not Active					
COc1ccc2c(c1)[C@]13CCCC[C@@H]1[C@H](C2)N(C)CC3 [DEXTROMETHORPHAN]	Not Active	Not Active	Not Active	Not Active	Not Active	Not Active	Not Active					
CC(=O)Nc1c(I)c(NC(C)=O)c(I)c(C(=O)O)c1I [DIATRIZOIC ACID]	Not Active	Not Active	Not Active	Not Active	Not Active	Not Active	Not Active					
COP(=O)(OC)OC=C(Cl)Cl [DICHLORVOS]	Not Active	Not Active	Not Active	Not Active	Not Active	Not Active	Not Active					
O=C(O)Cc1ccccc1Nc1c(Cl)cccc1Cl [DICLOFENAC]	Not Active	Not Active	Not Active	Not Active	Not Active	Not Active	Not Active					
C[C@H]1O[C@@H](O[C@H]2[C@@H](O)C[C@H](O[C@H]3[C@@H](O)C[C@H](O[C@H]4CC[C@@]5(C)[C@H](CC[C@@H]6[C@@H]5CC[C@]5(C)[C@@H](C7=CC(=O)OC7)CC[C@]65O)C4)O[C@@H]3C)O[C@@H]2C)C[C@H](O)[C@@H]1O [DIGITOXIN]	Not Active	Not Active	Not Active	Not Active	Not Active	Not Active	Not Active					
CCN1CC(CCN2CCOCC2)C(c2ccccc2)(c2ccccc2)C1=O (stereo unspecified) [DOXAPRAM]	Not Active	Not Active	Not Active	Not Active	Not Active	Not Active	Not Active					
Cn1c(=O)c2c(ncn2CC2OCCO2)n(C)c1=O [DOXOFYLLINE]	Not Active	Not Active	Not Active	Not Active	Not Active	Not Active	Not Active					
COc1cccc2c1C(=O)c1c(O)c3c(c(O)c1C2=O)C[C@@](O)(C(=O)CO)C[C@@H]3O[C@H]1C[C@H](N)[C@H](O)[C@H](C)O1 [DOXORUBICIN]	Not Active	Not Active	Not Active		Not Active	Not Active		13.6 µM	34.5 µM	15.7 µM		
COc1cccc2c1C(=O)c1c(O)c3c(c(O)c1C2=O)C[C@@](O)(C(=O)CO)C[C@@H]3O[C@H]1C[C@H](N)[C@@H](O)[C@H](C)O1 [EPIRUBICIN]	Not Active	Not Active	Not Active	Not Active	Not Active	Not Active	Not Active					
C[C@]12CC[C@@H]3c4ccc(OC(=O)c5ccccc5)cc4CC[C@H]3[C@@H]1CC[C@@H]2O [ESTRADIOL BENZOATE]	Not Active	Not Active	Not Active	Not Active	Not Active	Not Active	Not Active					
C[C@]12CC[C@@H]3c4ccc(O)cc4CC[C@H]3[C@@H]1CC[C@@H]2O [ESTRADIOL]	Not Active	Not Active	Not Active		Not Active	Not Active	Not Active	11.3 µM				
CC[C@@H](CO)NCCN[C@@H](CC)CO [ETHAMBUTOL]	Not Active	Not Active	Not Active	Not Active	Not Active	Not Active	Not Active					
CC1(C)O[C@@H]2C[C@H]3[C@@H]4C[C@H](F)C5=CC(=O)C=C[C@]5(C)[C@H]4[C@@H](O)C[C@]3(C)[C@]2(C(=O)CO)O1 [FLUNISOLIDE]	Not Active	Not Active	Not Active	Not Active	Not Active	Not Active	Not Active					
CC1(C)O[C@@H]2C[C@H]3[C@@H]4C[C@H](F)C5=CC(=O)C=C[C@]5(C)[C@@]4(F)[C@@H](O)C[C@]3(C)[C@]2(C(=O)CO)O1 [FLUOCINOLONE ACETONIDE]	Not Active	Not Active	Not Active	Not Active	Not Active	Not Active	Not Active					
CC1(C)O[C@@H]2C[C@H]3[C@@H]4C[C@H](F)C5=CC(=O)CC[C@]5(C)[C@H]4[C@@H](O)C[C@]3(C)[C@]2(C(=O)CO)O1 [FLURANDRENOLIDE]	Not Active	Not Active	Not Active	Not Active	Not Active	Not Active	Not Active					
CN(C)c1ccc(C(=C2C=CC(=[N+](C)C)C=C2)c2ccc(N(C)C)cc2)cc1.[Cl-] [GENTIAN VIOLET]	Not Active	Not Active		Not Active	Not Active	Not Active	Not Active				0.536 µM	0.201 µM
Cc1ccc(S(=O)(=O)NC(=O)NN2CC3CCCC3C2)cc1 (stereo unspecified) [GLICLAZIDE]	Not Active	Not Active	Not Active	Not Active	Not Active	Not Active	Not Active					
NC(=O)NO [HYDROXYUREA]	Not Active	Not Active	Not Active	Not Active	Not Active	Not Active	Not Active					
CC(C)Cc1ccc(C(C)C(=O)O)cc1 (stereo unspecified) [IBUPROFEN]	Not Active	Not Active	Not Active	Not Active	Not Active	Not Active	Not Active					
COc1ccc2c(c1)c(CC(=O)O)c(C)n2C(=O)c1ccc(Cl)cc1 [INDOMETHACIN]	Not Active	Not Active	Not Active	Not Active	Not Active	Not Active	Not Active					
CCc1c2c(nc3ccc(OC(=O)N4CCC(N5CCCCC5)CC4)cc13)-c1cc3c(c(=O)n1C2)COC(=O)[C@]3(O)CC [IRINOTECAN]	Not Active	Not Active	Not Active	Not Active	Not Active	Not Active	Not Active					
CC(C(=O)O)c1cccc(C(=O)c2ccccc2)c1 (stereo unspecified) [KETOPROFEN]	Not Active	Not Active	Not Active	Not Active	Not Active	Not Active	Not Active					
Nc1ccn([C@@H]2CS[C@H](CO)O2)c(=O)n1 [LAMIVUDINE]	Not Active	Not Active	Not Active	Not Active	Not Active	Not Active	Not Active					
O=S(=O)([O-])CCS.[Na+] [MESNA]	Not Active	Not Active	Not Active	Not Active	Not Active	Not Active	Not Active					
C#C[C@]1(O)CC[C@H]2[C@@H]3CCc4cc(OC)ccc4[C@H]3CC[C@@]21C [MESTRANOL]	Not Active	Not Active	Not Active	Not Active	Not Active	Not Active	Not Active					
